The source of these data is patent US4375513A, “Biologically pure culture of Actinoplanes missouriensis” (Eli Lilly and Company, priority 1981, dated 1983).

The subject of assay [1] is Actinoplanes Strain ATCC 31682. The experiment in a line: antibiotic sensitivity of Actinoplanes strain ATCC 31682. The format is cell-based, Actinoplanes missouriensis. The procedure: (§1) The methods used for the taxonomic studies of strains ATCC 31680, ATCC 31682, and ATCC 31683 are well known to those skilled in the art and in large part are methods recommended for the International Streptomyces Project (ISP), described by Shirling and Gottlieb, 1966, Intern. J. of Systematic Bacteriol. 16(3):313-340. Enzyme assays were carried out according to the methods of Blazevic and Ederer, 1975, Principles of Biochemical Tests in Diagnostic Microbiology, John Wiley and Sons. Inc., New York, and color names, abbreviations, and numbers were assigned using the ISCC-NBS method of Kelly and Judd, 1976, The ISCC-NBS Centroid Color Charts Standard Sample No. 2106, U.S. Dept. of Commerce, National Bureau of Standards, Washington D.C. Lysozyme resistance and the decomposition of casein, esculin, hypoxanthine, tyrosine, and xanthine were measured using the procedure of Berg, 1973, Appl. Microbiol. 25:665-681. Carbon utilization studies were also completed and are stored as follows: […]

Assay [2] has as its system Actinoplanes Strain ATCC 31680. The experiment in a line: antibiotic sensitivity of Actinoplanes strain ATCC 31680. In kind it is cell-based, Actinoplanes missouriensis. The procedure:
as §1

The test system of assay [3] is Actinoplanes Strain ATCC 31683. The experiment in a line: antibiotic sensitivity of Actinoplanes strain ATCC 31683. In kind it is cell-based, Actinoplanes missouriensis. The procedure:
as §1

Assay [4] is described as follows: bioautography of aglycone formation during hydrolysis. In kind it is cell-based. The settings on record: during hydrolysis of A-4696 complex and individual factors. An excerpt:
An additional factor, designated as E1, can also be isolated from the antibiotic A-4696 complex and may represent a degradation product. The chemical, physical, and biological properties of the factors indicate that they are new antibiotics and, except possibly for factor E1, that they are composed of the same peptide core (aglycone) and amino sugar, and varying amounts of glucose, mannose, and rhamnose. […] It is possible that the site of antimicrobial activity of the A-4696 complex and individual factors resides in the peptide pseudo-aglycone, with the factors being substantially differentiated by differences in their neutral sugar composition. The attached sugars may function chiefly to modulate solubility and other important pharmacodynamic parameters.

SMILES strings stand for the structures. Counter-ions that a name gives are not always drawn.

As to `CC(=O)OCC1=C(C(=O)O)N2C(=O)[C@@H](NC(=O)Cc3cccs3)[C@H]2SC1` [Cephalothin (sodium)], the Antibiotic sensitivity entry in assay [1] (30 μg.), in assay [2] (30 μg.) and in assay [3] (30 μg.) was “Sensitive” each time.

On to `O=C(N[C@H](CO)[C@H](O)c1ccc([N+](=O)[O-])cc1)C(Cl)Cl` [Chloromycetin], for which the Antibiotic sensitivity result in assay [1] (30 μg.), in assay [2] (30 μg.) and in assay [3] (30 μg.) was “Sensitive” in each case.

As to `CCC(=O)O[C@H]1[C@H](O[C@@H]2[C@@H](C)[C@H](O[C@H]3C[C@@](C)(OC)[C@@H](O)[C@H](C)O3)[C@@H](C)C(=O)O[C@H](CC)[C@@](C)(O)[C@H](O)[C@@H](C)C(=O)[C@H](C)C[C@@]2(C)O)O[C@H](C)C[C@@H]1N(C)C` [Erythromycin (estolate)], the Antibiotic sensitivity result in assay [1] (15 μg.), in assay [2] (15 μg.) and in assay [3] (15 μg.) was “Sensitive” throughout.

Regarding `CO[C@@H]1[C@@H](OC(N)=O)[C@@H](O)[C@H](Oc2ccc3c(O)c(NC(=O)c4ccc(O)c(CC=C(C)C)c4)c(=O)oc3c2C)OC1(C)C` [Novobiocin], the Antibiotic sensitivity result in assay [1] (30 μg.), in assay [2] (30 μg.) and in assay [3] (30 μg.) was “Sensitive” in each case.

With `CC1(C)S[C@@H]2[C@H](NC(=O)Cc3ccccc3)C(=O)N2[C@H]1C(=O)O` [Penicillin (G)], the Antibiotic sensitivity result in assay [1] (10 units), in assay [2] (10 units) and in assay [3] (10 units) was “Sensitive” each time.

For the molecule `CO[C@H]1/C=C/O[C@@]2(C)Oc3c(C)c(O)c4c(O)c(c(/C=N/N5CCN(C)CC5)c(O)c4c3C2=O)NC(=O)/C(C)=C\C=C\[C@H](C)[C@H](O)[C@@H](C)[C@@H](O)[C@@H](C)[C@H](OC(C)=O)[C@@H]1C` [Rifampin], the Antibiotic sensitivity entry in assay [1] (5 μg.), in assay [2] (5 μg.) and in assay [3] (5 μg.) was “Sensitive” in each case.

With `[H]/N=C(/N)N[C@H]1[C@H](O)[C@@H](O)[C@H](O[C@@H]2O[C@@H](C)[C@](O)(C=O)[C@H]2O[C@@H]2O[C@@H](CO)[C@H](O)[C@@H](O)[C@@H]2NC)[C@@H](N/C(N)=N\[H])[C@@H]1O` [Streptomycin], the Antibiotic sensitivity entry in assay [1] (10 μg.), in assay [2] (10 μg.) and in assay [3] (10 μg.) was “Sensitive” throughout.

For the molecule `CN(C)C1C(=O)C(C(N)=O)=C(O)C2(O)C(=O)C3=C(O)c4c(O)cccc4C(C)(O)C3CC12` (stereo not shown) [Tetracycline], the Antibiotic sensitivity result in assay [1] (30 μg.), in assay [2] (30 μg.) and in assay [3] (30 μg.) was “Sensitive” throughout.

As to `CN[C@H](CC(C)C)C(=O)N[C@H]1C(=O)N[C@@H](CC(N)=O)C(=O)N[C@H]2C(=O)N[C@H]3C(=O)N[C@H](C(=O)N[C@H](C(=O)O)c4cc(O)cc(O)c4-c4cc3ccc4O)[C@H](O)c3ccc(c(Cl)c3)Oc3cc2cc(c3O[C@@H]2O[C@H](CO)[C@@H](O)[C@H](O)[C@H]2O[C@H]2C[C@](C)(N)[C@H](O)[C@H](C)O2)Oc2ccc(cc2Cl)[C@H]1O` [Vancomycin HCl], the Antibiotic sensitivity result in assay [1] (30 μg.), in assay [2] (30 μg.) and in assay [3] (30 μg.) was “Sensitive” each time.

With `COC(=O)C1NC(=O)C2NC(=O)C(NC(=O)C3NC(=O)C4NC(=O)C(Cc5ccc(cc5)Oc5cc3cc(c5O)Oc3ccc(cc3Cl)C2OC2CC(N)C(O)C(C)O2)NC(=O)C(N)c2ccc(O)c(c2)Oc2cc4cc(O)c2C)c2ccc(O)c(c2)-c2c(O)cc(O)cc21` (stereo not shown) [pseudo-aglycone], the “antimicrobial activity (bioautography)” value in assay [4] is listed as “antimicrobially active”.
